Source: publication PMC7756392, “Syntheses of Thailandepsin B Pseudo‐Natural Products: Access to New Highly Potent HDAC Inhibitors via Late‐Stage Modification” (Chemistry (Weinheim an Der Bergstrasse, Germany), 2020)

Columns and labels:
[1] = biological target: T1, human recombinant HDAC1 (Homo sapiens, UniProt Q13547); assay: ZMAL trypsin assay, HDAC1; format: biochemical; conditions: for inhibition at 10 µM: ZMAL trypsin assay
T1 construct: purchased BPS Bioscience 50051
Method: (§1) [28] Assays for HDAC1/6 were prepared according to: B. Heltweg , J. Trapp , M. Jung , Methods 2005, 36, 332–337; assays for HDAC8 were prepared according to: J. Senger , J. Melesina , M. Marek , C. Romier , I. Oehme , O. Witt , W. Sippl , M. Jung , J. Med. Chem. 2016, 59, 1545–1555. […]
(§2) hHDAC1/6: Activity assays were performed in OptiPlateTM-96 F black microplates (PerkinElmer). Commercial available enzymes (human recombinant HDAC1; BPS Bioscience, catalog no. 50051 and human recombinant HDAC6; BPS Bioscience, catalog no. 50006) were used. Total assay volume of 60 µL contains 42 µl of assay buffer (50 mM Tris -HCl, pH 8.0, 137 mM NaCl, 2.7 mM KCl, 1 mM MgCl2, 0.2 mM TCEP and 1 mg/mL bovine serum albumin), 10 µL of enzyme solution in assay buffer, 3 µL of increasing concentrations of inhibitors in DMSO and 5 μL of the fluorogenic substrate ZMAL (Z -(Ac)Lys-AMC) (126 μM). After incubation (90 min, 37 °C) 60 µL of stop solution, containing 5 μL Trichostatin A (TSA) (33 μM) and 10 μL trypsin (6 mg/mL) in trypsin buffer (Tris-HCl 50 mM, pH 8.0, NaCl 100 mM), were added. […]

[2] = biological target: T2, human recombinant HDAC6 (Homo sapiens, UniProt Q9UBN7); assay: ZMAL trypsin assay, HDAC6; format: biochemical; conditions: for inhibition at 10 µM: ZMAL trypsin assay
T2 construct: purchased BPS Bioscience 50006
T2 sequence (Q9UBN7 1-1215): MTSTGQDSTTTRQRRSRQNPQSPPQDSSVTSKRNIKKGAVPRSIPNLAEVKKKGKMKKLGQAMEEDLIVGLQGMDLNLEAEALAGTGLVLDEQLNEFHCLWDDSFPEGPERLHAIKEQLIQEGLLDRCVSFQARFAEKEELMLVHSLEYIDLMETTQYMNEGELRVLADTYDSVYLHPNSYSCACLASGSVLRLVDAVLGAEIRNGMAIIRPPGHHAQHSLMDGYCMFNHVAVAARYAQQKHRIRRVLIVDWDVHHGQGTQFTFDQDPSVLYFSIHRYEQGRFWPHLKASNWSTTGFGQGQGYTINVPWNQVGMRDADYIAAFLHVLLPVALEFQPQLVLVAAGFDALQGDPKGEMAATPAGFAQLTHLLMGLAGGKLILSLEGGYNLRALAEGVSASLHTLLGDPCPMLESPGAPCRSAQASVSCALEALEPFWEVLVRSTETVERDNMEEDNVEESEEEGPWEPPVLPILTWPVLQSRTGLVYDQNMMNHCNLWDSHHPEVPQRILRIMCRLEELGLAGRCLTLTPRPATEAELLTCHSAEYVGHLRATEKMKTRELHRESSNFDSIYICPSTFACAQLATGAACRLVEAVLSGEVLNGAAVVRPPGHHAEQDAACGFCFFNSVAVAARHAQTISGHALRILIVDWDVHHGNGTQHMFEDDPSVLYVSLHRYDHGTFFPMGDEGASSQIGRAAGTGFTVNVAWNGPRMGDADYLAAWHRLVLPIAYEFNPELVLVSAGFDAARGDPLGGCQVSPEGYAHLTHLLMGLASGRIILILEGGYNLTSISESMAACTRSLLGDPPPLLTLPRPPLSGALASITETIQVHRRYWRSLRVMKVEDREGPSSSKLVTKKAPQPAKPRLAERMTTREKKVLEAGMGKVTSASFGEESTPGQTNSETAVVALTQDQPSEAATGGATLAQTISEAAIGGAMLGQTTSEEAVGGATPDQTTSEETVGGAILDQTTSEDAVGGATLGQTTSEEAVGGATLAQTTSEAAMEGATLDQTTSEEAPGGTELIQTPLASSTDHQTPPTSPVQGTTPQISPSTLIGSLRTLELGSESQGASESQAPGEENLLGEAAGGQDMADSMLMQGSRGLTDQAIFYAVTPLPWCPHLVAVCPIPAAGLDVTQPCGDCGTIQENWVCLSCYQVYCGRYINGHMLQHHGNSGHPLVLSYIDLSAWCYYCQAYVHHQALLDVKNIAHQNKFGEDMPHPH
Method: as §1, §2

T1 sequence (Q13547 whole entry): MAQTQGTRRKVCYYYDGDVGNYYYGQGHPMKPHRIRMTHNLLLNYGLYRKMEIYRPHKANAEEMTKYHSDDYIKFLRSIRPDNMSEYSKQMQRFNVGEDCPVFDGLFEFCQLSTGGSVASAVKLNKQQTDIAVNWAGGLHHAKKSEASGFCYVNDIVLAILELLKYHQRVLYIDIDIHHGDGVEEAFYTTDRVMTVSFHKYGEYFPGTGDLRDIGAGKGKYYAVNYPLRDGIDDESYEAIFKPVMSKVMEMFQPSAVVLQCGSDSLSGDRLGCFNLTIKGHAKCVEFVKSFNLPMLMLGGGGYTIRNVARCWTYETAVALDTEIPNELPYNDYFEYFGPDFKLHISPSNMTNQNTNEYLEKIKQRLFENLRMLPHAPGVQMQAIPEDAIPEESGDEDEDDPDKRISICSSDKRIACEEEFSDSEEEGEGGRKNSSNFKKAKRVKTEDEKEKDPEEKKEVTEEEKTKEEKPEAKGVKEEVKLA

SMILES	HDAC1 inhibition (in words) [1]	inhibition at 10 µM [1]	HDAC6 inhibition (in words) [2]	inhibition at 10 µM [2]
C=C[C@@H]1CC(=O)N[C@H](CCCC)C(=O)N[C@H](C)C(=O)N[C@H]([C@@H](C)CC)[C@@H](O[Si](C)(C)C(C)(C)C)CC(=O)O1 [compound 9]	did not show inhibition	< 5%	did not show inhibition	< 5%
C=C[C@@H]1CC(=O)N[C@H](CCCC)C(=O)N[C@H](C)C(=O)N[C@H]([C@@H](C)CC)[C@@H](O)CC(=O)O1 [compound 28]	did not show inhibition	< 5%	did not show inhibition	< 5%
CCCC[C@H]1NC(=O)C[C@@H](/C=C/CCC(=O)N(OC(=O)OC(C)(C)C)C(=O)OC(C)(C)C)OC(=O)C[C@H](O[Si](C)(C)C(C)(C)C)[C@@H]([C@@H](C)CC)NC(=O)[C@@H](C)NC1=O [compound 35]	not active	< 5%	not active	< 5%
